Measured values from patent publication US4327097A, “Novel penicillins” (Toyama Chemical Co., Ltd., priority 1974, dated 1982).
≈ marks a conversion by molar mass, not a printed value.

Key:
Format in all cases: cell-based
Escherichia coli NIHJ = test: MIC, plate method, standard strains; settings: Table 3, standard strain; unit assumed
Procedure: (§1) The minimum inhibitory concentration (MIC) was determined by the plate method disclosed in "Chemotherapy" (Japan), Vol. 16, (1968), pages 98-99. The culture medium used was a Heart infusion agar (pH 7.4). The number of the cells per plate used in the inoculum was 10^4 (10^6 cells/ml).

[1] = system: Staphylococcus aureus 209p; test: MIC, plate method, standard strains; settings: Table 3, standard strain, Heart infusion agar pH 7.4; unit assumed
Procedure: as §1

Proteus vulgaris 3027 = test: MIC, plate method, standard strains; settings: Table 3, standard strain; unit assumed
Procedure: as §1

Pseudomonas aeruginosa = test: MIC against clinical isolates; settings: unit assumed
Klebsiella pneumoniae [2] = test: MIC, plate method, standard strains; settings: Table 3, standard strain; unit assumed
Procedure: as §1

[3] = system: Pseudomonas aeruginosa I.F.O.; test: MIC, plate method, standard strains; settings: Table 3, standard strain; unit assumed
Procedure: as §1

Staphylococcus aureus = test: MIC against clinical isolates; settings: Table 5-1, clinical isolate; unit assumed
Escherichia coli = test: MIC against clinical isolates; settings: Table 5-2, clinical isolate; unit assumed
Klebsiella pneumoniae [4] = test: MIC against clinical isolates; settings: Table 5-4, clinical isolate; unit assumed
Shigella flexneri = test: MIC against clinical isolates; settings: Table 5-5, clinical isolate; unit assumed
Procedure: as §1
(§2) MIC was determined in the same manner as in the preceding paragraph (1).

Shigella sonnei = test: MIC against clinical isolates; settings: Table 5-5, clinical isolate; unit assumed
Procedure: as §1, §2

Compound: CC1(C)SC2C(NC(=O)C(NC(=O)N3CCN(C4CCCC4)C(=O)C3)c3ccccc3)C(=O)N2C1C(=O)O (single isomer, unassigned) [Compound 32]
- MIC Esche--richin coil NIHJ (Escherichia coli NIHJ): < 1.57 µg/mL
- MIC Staphylococcus aureus 209p [1]: < 1.57 µg/mL

Compound: CC(=O)OCCN1CCN(C(=O)NC(C(=O)NC2C(=O)N3C2SC(C)(C)C3C(=O)O)c2ccccc2)C(=O)C1=O (single isomer, unassigned) [Compound 41]
- MIC Esche--richin coil NIHJ (Escherichia coli NIHJ): < 1.57 µg/mL
- MIC Proteus vulgaris 3027 (Proteus vulgaris 3027): < 1.57 µg/mL
- MIC Staphylococcus aureus 209p [1]: < 1.57 µg/mL

Compound: C=CCN1CCN(C(=O)NC(C(=O)NC2C(=O)N3C2SC(C)(C)C3C(=O)O)c2ccccc2)C(=O)C1=O (single isomer, unassigned) [Compound 42]
- MIC Esche--richin coil NIHJ (Escherichia coli NIHJ): < 1.57 µg/mL
- MIC Proteus vulgaris 3027 (Proteus vulgaris 3027): < 1.57 µg/mL

Compound: CC1(C)SC2C(NC(=O)C(NC(=O)N3CCN(c4ccccc4)C(=O)C3=O)c3ccccc3)C(=O)N2C1C(=O)O (single isomer, unassigned) [Compound 43]
- MIC Esche--richin coil NIHJ (Escherichia coli NIHJ): < 1.57 µg/mL
- MIC Proteus vulgaris 3027 (Proteus vulgaris 3027): < 1.57 µg/mL
- MIC Staphylococcus aureus 209p [1]: < 1.57 µg/mL

Compound: CC(=O)OCC1=C(C(=O)O)N2C(=O)C(NC(=O)C(NC(=O)N3CCN(C)C(=O)C3=O)c3ccccc3)C2SC1 (single isomer, unassigned) [Compound No. 60]
- MIC Pseudomonas aeruginosa GN4 (Pseudomonas aeruginosa; Table 6-3, clinical isolate): 50 µg/mL (≈ 89.4 µM)
- MIC Pseudomonas aeruginosa GN 82 (Pseudomonas aeruginosa; Table 6-3, clinical isolate): 50 µg/mL (≈ 89.4 µM)
- MIC Pseudomonas aeruginosa GN 376 (Pseudomonas aeruginosa; Table 6-3, clinical isolate): 50 µg/mL (≈ 89.4 µM)
- MIC Pseudomonas aeruginosa GN 2987 (Pseudomonas aeruginosa; Table 6-3, clinical isolate): 50 µg/mL (≈ 89.4 µM)

Compound: Cc1nnc(SCC2=C(C(=O)O)N3C(=O)C(NC(=O)C(NC(=O)N4CCN(C)C(=O)C4=O)c4ccccc4)C3SC2)s1 (single isomer, unassigned) [Compound No. 62]
- MIC Pseudomonas aeruginosa GN4 (Pseudomonas aeruginosa; Table 6-3, clinical isolate): 100 µg/mL (≈ 158 µM)
- MIC Pseudomonas aeruginosa GN 82 (Pseudomonas aeruginosa; Table 6-3, clinical isolate): 100 µg/mL (≈ 158 µM)
- MIC Pseudomonas aeruginosa GN 376 (Pseudomonas aeruginosa; Table 6-3, clinical isolate): 100 µg/mL (≈ 158 µM)
- MIC Pseudomonas aeruginosa GN 2565 (Pseudomonas aeruginosa; Table 6-3, clinical isolate): 100 µg/mL (≈ 158 µM)

Compound: CN1CCN(C(=O)NC(C(=O)NC2C(=O)N3C2SC(C)(C)C3C(=O)O)c2ccc(O)cc2)C(=O)C1=O (single isomer, unassigned) [compound 48]
- MIC Esche--richin coil NIHJ (Escherichia coli NIHJ): < 0.4 µg/mL
- MIC Proteus vulgaris 3027 (Proteus vulgaris 3027): < 0.4 µg/mL
- MIC Staphylococcus aureus 209p [1]: < 0.4 µg/mL

Compound: CN1CCN(C(=O)N[C@@H](C(=O)N[C@@H]2C(=O)N3[C@@H]2SC(C)(C)[C@@H]3C(=O)OC2OC(=O)c3ccccc32)c2ccccc2)C(=O)C1=O (single isomer, unassigned) [compound 49]
- MIC Staphylococcus aureus 209p [1]: < 0.4 µg/mL

Compound: COCOC(=O)C1N2C(=O)C(NC(=O)C(NC(=O)N3CCN(C)C(=O)C3=O)c3ccccc3)C2SC1(C)C (single isomer, unassigned) [compound 50]
- MIC Esche--richin coil NIHJ (Escherichia coli NIHJ): < 0.79 µg/mL
- MIC Proteus vulgaris 3027 (Proteus vulgaris 3027): < 0.79 µg/mL
- MIC Staphylococcus aureus 209p [1]: < 0.79 µg/mL

Compound: CCCCCCCCN1CCN(C(=O)NC(C(=O)NC2C(=O)N3C2SC(C)(C)C3C(=O)OCOC)c2ccccc2)C(=O)C1=O (single isomer, unassigned) [compound 51]
- MIC Esche--richin coil NIHJ (Escherichia coli NIHJ): < 0.4 µg/mL
- MIC Klebsiella pneumoniae (Klebsiella pneumoniae [2]): < 0.4 µg/mL
- MIC Proteus vulgaris 3027 (Proteus vulgaris 3027): < 0.4 µg/mL
- MIC Staphylococcus aureus 209p [1]: < 0.4 µg/mL

Compound: CN1CCN(C(=O)NC(C(=O)NC2C(=O)N3C2SC(C)(C)C3C(=O)OCCN2CCCCC2)c2ccccc2)C(=O)C1=O (single isomer, unassigned) [compound 53]
- MIC Esche--richin coil NIHJ (Escherichia coli NIHJ): < 0.4 µg/mL

Compound: CC1(C)S[C@@H]2[C@H](NC(=O)[C@H](NC(=O)N3CCN(C(=O)c4ccc(Cl)cc4)CC3=O)c3ccccc3)C(=O)N2[C@H]1C(=O)O [Compound 8]
- MIC Proteus vulgaris 3027 (Proteus vulgaris 3027): 3.13 µg/mL (≈ 5.1 µM)
- MIC Pseudomonas aeruginosa I.F.C [3]: 100 µg/mL (≈ 163 µM)

Compound: CCCCCCN1CCN(C(=O)N[C@@H](C(=O)N[C@@H]2C(=O)N3[C@@H]2SC(C)(C)[C@@H]3C(=O)O)c2ccccc2)C(=O)C1 [Compound 13]
- MIC Esche--richin coil NIHJ (Escherichia coli NIHJ): < 1.57 µg/mL
- MIC Klebsiella pneumoniae (Klebsiella pneumoniae [2]): < 1.57 µg/mL
- MIC Proteus vulgaris 3027 (Proteus vulgaris 3027): < 1.57 µg/mL
- MIC Staphylococcus aureus 209p [1]: < 1.57 µg/mL
- MIC Staphylococcus aureus F-1 (Staphylococcus aureus): 12.5 µg/mL (≈ 22.3 µM)
- MIC Staphylococcus aureus F-2 (Staphylococcus aureus): 1.57 µg/mL (≈ 2.81 µM)
- MIC Staphylococcus aureus F-4 (Staphylococcus aureus): 6.25 µg/mL (≈ 11.2 µM)
- MIC Staphylococcus aureus MS 8588 (Staphylococcus aureus): 3.13 µg/mL (≈ 5.59 µM)
- MIC Staphylococcus aureus MS 8596 (Staphylococcus aureus): 3.13 µg/mL (≈ 5.59 µM)
- MIC Staphylococcus aureus MS 8684 (Staphylococcus aureus): 3.13 µg/mL (≈ 5.59 µM)
- MIC Staphylococcus aureus MS 8713 (Staphylococcus aureus): 3.13 µg/mL (≈ 5.59 µM)
- MIC Escherichia coli GN 3435 (Escherichia coli): 3.13 µg/mL (≈ 5.59 µM)
- MIC Escherichia coli GN 3452 (Escherichia coli): 3.13 µg/mL (≈ 5.59 µM)
- MIC Escherichia coli GN 3481 (Escherichia coli): 6.25 µg/mL (≈ 11.2 µM)
- MIC Escherichia coli K-1 (Escherichia coli): 3.13 µg/mL (≈ 5.59 µM)
- MIC Escherichia coli K-2 (Escherichia coli): 6.25 µg/mL (≈ 11.2 µM)
- MIC Escherichia coli K-4 (Escherichia coli): 6.25 µg/mL (≈ 11.2 µM)
- MIC Pseudomonas aeruginosa GN 2987 (Pseudomonas aeruginosa; Table 5-3, clinical isolate): 12.5 µg/mL (≈ 22.3 µM)
- MIC Klebsiella pneumoniae GN 917 (Klebsiella pneumoniae [4]): 12.5 µg/mL (≈ 22.3 µM)
- MIC Klebsiella pneumoniae GN 3850 (Klebsiella pneumoniae [4]): 6.25 µg/mL (≈ 11.2 µM)
- MIC Shigella flexneri JS 11215 (Shigella flexneri): 12.5 µg/mL (≈ 22.3 µM)
- MIC Shigella flexneri JS 11839 (Shigella flexneri): 1.57 µg/mL (≈ 2.81 µM)
- MIC Shigella sonnei JS 11232 (Shigella sonnei): 12.5 µg/mL (≈ 22.3 µM)
- MIC Shigella sonnei JS 11755 (Shigella sonnei): 3.13 µg/mL (≈ 5.59 µM)
